In brackets after ≈: the same amount, converted by molar mass.
Tested on: P388
Test: Cytotoxicity against mouse P388 cells by MTT method
Format: functional
Details: read-out: ED50 (the source's name)

SMILES: CC(=O)O[C@@H]1[C@@H](OC(C)=O)C2=C(C)C(=O)O[C@]2(O)C[C@@]2(C)O[C@@H]2CC[C@H](C)[C@H]2CC[C@]1(C)O2 [PACHYCLAVULARIOLIDE M]
- EC50: 3.2 µg/mL (≈ 6.86 µM)

Reference: ChEMBL document CHEMBL1150043, “Pachyclavulariolides M-R, six novel diterpenoids from a Taiwanese soft coral Pachyclavularia violacea” (2003)
